Laboratory results as given in ChEMBL document CHEMBL1148655, “Anti-angiogenic activity of basic-type, selective cyclooxygenase (COX)-1 inhibitors” (2006).
Activity calls are given as the source filed them. No cut-off for these calls is given here.

Each molecule was assayed against T1, Prostaglandin G/H synthase 2 (Homo sapiens) (UniProt P35354). Settings: at 30 µM.
T1 sequence (whole entry): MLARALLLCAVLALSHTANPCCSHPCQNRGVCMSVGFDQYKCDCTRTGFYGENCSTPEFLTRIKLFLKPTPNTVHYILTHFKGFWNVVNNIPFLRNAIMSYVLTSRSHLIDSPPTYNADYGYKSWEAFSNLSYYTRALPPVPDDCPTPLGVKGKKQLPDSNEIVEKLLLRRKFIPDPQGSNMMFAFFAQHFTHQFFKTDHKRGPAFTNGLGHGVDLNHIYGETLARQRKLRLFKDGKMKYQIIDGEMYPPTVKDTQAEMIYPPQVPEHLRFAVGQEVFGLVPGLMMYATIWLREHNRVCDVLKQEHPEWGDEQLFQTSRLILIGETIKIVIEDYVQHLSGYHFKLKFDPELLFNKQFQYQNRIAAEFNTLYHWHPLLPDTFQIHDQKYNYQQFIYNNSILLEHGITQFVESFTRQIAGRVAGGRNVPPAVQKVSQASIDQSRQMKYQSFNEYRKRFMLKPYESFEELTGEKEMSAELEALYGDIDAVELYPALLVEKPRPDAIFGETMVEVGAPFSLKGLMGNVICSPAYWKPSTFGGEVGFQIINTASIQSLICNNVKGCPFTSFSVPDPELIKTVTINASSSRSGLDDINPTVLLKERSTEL
Description: Inhibition of COX2 at 30 uM
Molecule `CC(=O)Oc1ccccc1C(=O)O` has an inhibition of 15.7%.

Each molecule was assayed on HUVEC (assay: Cytotoxicity against HUVEC cell line). Settings: Homo sapiens, read-out: LD50 (the source's name).
Type: functional
With `Nc1ccc2c(c1)CCN2C(=O)c1cc(Cl)cc(Cl)c1` the CC50 was greater than 100 µM.
With `O=C(c1cc(C(F)(F)F)cc(C(F)(F)F)c1)N1CCc2cc([N+](=O)[O-])ccc21` the CC50 was greater than 100 µM.
Molecule `CC(C)(C)c1cc(C(=O)n2ccc3cc(N)ccc32)cc(C(C)(C)C)c1` has a CC50 greater than 100 µM.
With `Cc1cc(C)cc(C(=O)n2ccc3cc([N+](=O)[O-])ccc32)c1` the CC50 was greater than 100 µM.
`CC(C)(C)c1cc(C(=O)n2ccc3cc([N+](=O)[O-])ccc32)cc(C(C)(C)C)c1` showed a CC50 greater than 100 µM.
For `Cc1cc(C)cc(C(=O)N2CCc3cc([N+](=O)[O-])ccc32)c1`, the CC50 was greater than 100 µM.
Molecule `CC(C)(C)c1cc(C(=O)N2CCc3cc([N+](=O)[O-])ccc32)cc(C(C)(C)C)c1` has a CC50 greater than 100 µM.
In the case of `O=C(c1cc(C(F)(F)F)cc(C(F)(F)F)c1)n1ccc2cc([N+](=O)[O-])ccc21`, the CC50 is reported as greater than 100 µM.
`Cc1cc(C)cc(C(=O)n2ccc3cc(N)ccc32)c1` was tested, and the CC50 was greater than 100 µM.
In the case of `CC(C)(C)c1cc(C(=O)N2CCc3cc(N)ccc32)cc(C(C)(C)C)c1`, the CC50 is reported as greater than 100 µM.
`O=C(c1cc(Cl)cc(Cl)c1)N1CCc2cc([N+](=O)[O-])ccc21` gave a CC50 greater than 100 µM.
For `O=C(c1cc(Cl)cc(Cl)c1)n1ccc2cc([N+](=O)[O-])ccc21`, the CC50 was greater than 100 µM.
Molecule `Nc1ccc2c(c1)CCN2C(=O)c1cc(C(F)(F)F)cc(C(F)(F)F)c1` has a CC50 greater than 100 µM.
`Nc1ccc2c(ccn2C(=O)c2cc(Cl)cc(Cl)c2)c1` showed a CC50 greater than 100 µM.
Work on `Cc1cc(C)cc(C(=O)N2CCc3cc(N)ccc32)c1` yielded a CC50 greater than 100 µM.
`Nc1ccc2c(ccn2C(=O)c2cc(C(F)(F)F)cc(C(F)(F)F)c2)c1` was tested, and the CC50 was greater than 100 µM.

The molecules below were run on HUVEC (assay: Antiangiogenic activity against HUVEC cells by tube formation assay at 100 uM). Settings: not given.
Type: functional, Homo sapiens
In the case of `Cc1cc(C)cc(N2CCc3cc(N)ccc32)c1`, the Activity is reported as 75%.

Same assay, conditions: Homo sapiens, HUVEC
In the case of `CS(=O)(=O)c1ccc(-c2cc(Br)sc2-c2ccc(F)cc2)cc1` [DUP-697], the inhibition at 100 µM is reported as 25%.
In the case of `Cc1cc(C)cc(C(=O)n2ccc3cc(N)ccc32)c1`, the inhibition at 100 µM is reported as 50%.
Molecule `CC(C)Cc1ccc(C(C)C(=O)O)cc1` (stereo not drawn) [IBUPROFEN] has an inhibition at 100 µM of 35%.

These molecules were tested against Prostaglandin G/H synthase 1 (Homo sapiens) (UniProt P23219). Settings: at 30 µM.
Chain of Prostaglandin G/H synthase 1 (Homo sapiens) (P23219 whole entry): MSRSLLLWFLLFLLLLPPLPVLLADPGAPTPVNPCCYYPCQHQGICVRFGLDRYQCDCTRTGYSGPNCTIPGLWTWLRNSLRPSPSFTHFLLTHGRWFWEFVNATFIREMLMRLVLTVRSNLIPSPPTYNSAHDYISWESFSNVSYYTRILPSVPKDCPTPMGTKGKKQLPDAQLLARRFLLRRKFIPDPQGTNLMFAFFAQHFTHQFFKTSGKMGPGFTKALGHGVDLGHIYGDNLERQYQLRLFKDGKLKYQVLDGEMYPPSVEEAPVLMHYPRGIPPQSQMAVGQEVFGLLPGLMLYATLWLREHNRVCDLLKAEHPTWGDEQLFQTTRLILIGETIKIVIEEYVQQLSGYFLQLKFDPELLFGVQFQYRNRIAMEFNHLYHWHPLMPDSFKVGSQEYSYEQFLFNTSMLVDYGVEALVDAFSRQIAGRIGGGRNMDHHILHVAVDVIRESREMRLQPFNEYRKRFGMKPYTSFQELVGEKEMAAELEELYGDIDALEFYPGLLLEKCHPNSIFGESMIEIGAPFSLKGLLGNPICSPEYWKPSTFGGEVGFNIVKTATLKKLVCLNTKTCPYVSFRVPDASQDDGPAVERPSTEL
Description: Inhibition of COX1 at 30 uM
For `CS(=O)(=O)c1ccc(-c2cc(Br)sc2-c2ccc(F)cc2)cc1` [DUP-697], the inhibition was “inactive”.
Work on `CC(=O)Oc1ccccc1C(=O)O` yielded an inhibition of 21.9%.
